Experimental data taken from ChEMBL document CHEMBL5579820, “New insights into butyrylcholinesterase: Pharmaceutical applications, selective inhibitors and multitarget-directed ligands” (Eur J Med Chem, 2024).
Where “and” joins values, the source holds several entries; their conditions need not be identical. Identical values can stand only once.

Assays:
Acetylcholinesterase [1] = target: T1, Acetylcholinesterase (Homo sapiens, UniProt P22303); test: Inhibition of human AChE at 15 uM relative to control
T1 sequence (P22303 whole entry): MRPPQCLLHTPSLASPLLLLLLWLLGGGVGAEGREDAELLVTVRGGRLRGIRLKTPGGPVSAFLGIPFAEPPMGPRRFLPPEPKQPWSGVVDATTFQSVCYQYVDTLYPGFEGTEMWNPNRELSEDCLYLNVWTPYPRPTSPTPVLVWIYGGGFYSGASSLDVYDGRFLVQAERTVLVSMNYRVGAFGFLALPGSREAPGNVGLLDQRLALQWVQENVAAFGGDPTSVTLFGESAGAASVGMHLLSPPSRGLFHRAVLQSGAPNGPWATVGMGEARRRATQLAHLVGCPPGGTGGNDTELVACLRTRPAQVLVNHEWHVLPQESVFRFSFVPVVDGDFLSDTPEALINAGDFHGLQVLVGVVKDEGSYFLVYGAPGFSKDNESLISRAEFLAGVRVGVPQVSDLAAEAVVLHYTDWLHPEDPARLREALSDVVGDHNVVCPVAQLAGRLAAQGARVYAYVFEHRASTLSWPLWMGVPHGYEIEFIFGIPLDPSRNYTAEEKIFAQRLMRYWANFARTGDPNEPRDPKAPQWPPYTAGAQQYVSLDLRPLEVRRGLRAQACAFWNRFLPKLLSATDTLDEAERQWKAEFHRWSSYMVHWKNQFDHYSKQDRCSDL

Cholinesterase [2] = target: T2, Cholinesterase (Homo sapiens, UniProt P06276)
T2 sequence (P06276 whole entry): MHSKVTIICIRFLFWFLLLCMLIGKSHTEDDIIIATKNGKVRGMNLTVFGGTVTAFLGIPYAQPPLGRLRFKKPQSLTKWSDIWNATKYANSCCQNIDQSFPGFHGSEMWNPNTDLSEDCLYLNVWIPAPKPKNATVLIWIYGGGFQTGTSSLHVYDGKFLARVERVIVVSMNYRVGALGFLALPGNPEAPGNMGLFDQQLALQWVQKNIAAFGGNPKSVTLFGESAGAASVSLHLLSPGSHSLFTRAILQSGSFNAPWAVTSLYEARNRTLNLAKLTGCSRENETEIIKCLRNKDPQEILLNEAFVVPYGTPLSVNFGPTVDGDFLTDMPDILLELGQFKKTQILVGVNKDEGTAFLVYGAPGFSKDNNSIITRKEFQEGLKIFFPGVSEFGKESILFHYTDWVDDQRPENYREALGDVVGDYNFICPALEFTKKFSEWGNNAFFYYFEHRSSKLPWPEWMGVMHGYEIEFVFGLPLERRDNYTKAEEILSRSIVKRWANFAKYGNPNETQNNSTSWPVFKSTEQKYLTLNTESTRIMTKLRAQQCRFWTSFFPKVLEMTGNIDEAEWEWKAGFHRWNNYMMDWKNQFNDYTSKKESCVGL

Cholinesterase [3] = target: T2, Cholinesterase; test: Inhibition of human BChE using butyrylthiocholineiodide as substrate at 10 uM by Ellman's method relative to control
Acetylcholinesterase [4] = target: T3, Acetylcholinesterase (Electrophorus electricus, UniProt O42275); test: Inhibition of electric eel AChE
T3 sequence (O42275 whole entry): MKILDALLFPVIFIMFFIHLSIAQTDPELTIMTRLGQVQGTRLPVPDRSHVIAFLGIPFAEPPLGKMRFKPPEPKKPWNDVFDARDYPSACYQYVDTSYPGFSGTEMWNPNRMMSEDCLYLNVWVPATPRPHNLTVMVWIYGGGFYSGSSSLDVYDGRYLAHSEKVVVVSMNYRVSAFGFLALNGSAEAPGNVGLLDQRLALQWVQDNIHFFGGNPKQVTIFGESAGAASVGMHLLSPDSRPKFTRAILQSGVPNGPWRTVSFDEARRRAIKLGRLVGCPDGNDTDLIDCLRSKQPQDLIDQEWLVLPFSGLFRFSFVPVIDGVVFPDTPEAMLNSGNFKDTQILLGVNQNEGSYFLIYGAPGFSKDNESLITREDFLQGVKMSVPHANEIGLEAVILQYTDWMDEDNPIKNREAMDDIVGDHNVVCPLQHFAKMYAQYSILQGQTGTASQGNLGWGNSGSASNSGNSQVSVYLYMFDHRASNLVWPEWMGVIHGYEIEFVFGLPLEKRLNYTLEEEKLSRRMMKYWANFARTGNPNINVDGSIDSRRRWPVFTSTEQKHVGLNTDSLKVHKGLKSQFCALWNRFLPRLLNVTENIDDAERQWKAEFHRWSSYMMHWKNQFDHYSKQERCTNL

Cholinesterase [5] = target: T4, Cholinesterase (Equus caballus, UniProt P81908); test: Inhibition of equine BuChE
T4 sequence (P81908 whole entry): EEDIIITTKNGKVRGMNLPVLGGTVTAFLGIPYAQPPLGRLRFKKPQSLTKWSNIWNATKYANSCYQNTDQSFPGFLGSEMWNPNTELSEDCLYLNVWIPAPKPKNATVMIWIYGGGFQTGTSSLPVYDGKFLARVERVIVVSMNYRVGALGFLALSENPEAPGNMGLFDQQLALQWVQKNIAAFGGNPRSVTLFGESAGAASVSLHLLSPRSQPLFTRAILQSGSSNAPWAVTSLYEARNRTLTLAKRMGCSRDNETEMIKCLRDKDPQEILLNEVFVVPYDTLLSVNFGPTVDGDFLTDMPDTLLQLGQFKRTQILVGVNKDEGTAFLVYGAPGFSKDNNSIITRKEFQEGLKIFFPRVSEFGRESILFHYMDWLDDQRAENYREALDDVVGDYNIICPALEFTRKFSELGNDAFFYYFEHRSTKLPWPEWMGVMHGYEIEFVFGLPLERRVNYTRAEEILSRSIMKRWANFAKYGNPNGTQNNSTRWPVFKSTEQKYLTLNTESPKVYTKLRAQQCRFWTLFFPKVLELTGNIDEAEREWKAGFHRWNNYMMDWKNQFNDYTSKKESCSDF

Acetylcholinesterase [6] = target: T1, Acetylcholinesterase; test: Inhibition of AChE (unknown origin)
Cholinesterase [7] = target: T2, Cholinesterase; test: Inhibition of BChE (unknown origin)
[8] = target: T5, Amine oxidase [flavin-containing] A (Homo sapiens, UniProt P21397); test: Inhibition of human recombinant MAO-A using kynuramine as substrate by incubated for 75 mins by spectrophotometric analysis
T5 sequence (P21397 whole entry): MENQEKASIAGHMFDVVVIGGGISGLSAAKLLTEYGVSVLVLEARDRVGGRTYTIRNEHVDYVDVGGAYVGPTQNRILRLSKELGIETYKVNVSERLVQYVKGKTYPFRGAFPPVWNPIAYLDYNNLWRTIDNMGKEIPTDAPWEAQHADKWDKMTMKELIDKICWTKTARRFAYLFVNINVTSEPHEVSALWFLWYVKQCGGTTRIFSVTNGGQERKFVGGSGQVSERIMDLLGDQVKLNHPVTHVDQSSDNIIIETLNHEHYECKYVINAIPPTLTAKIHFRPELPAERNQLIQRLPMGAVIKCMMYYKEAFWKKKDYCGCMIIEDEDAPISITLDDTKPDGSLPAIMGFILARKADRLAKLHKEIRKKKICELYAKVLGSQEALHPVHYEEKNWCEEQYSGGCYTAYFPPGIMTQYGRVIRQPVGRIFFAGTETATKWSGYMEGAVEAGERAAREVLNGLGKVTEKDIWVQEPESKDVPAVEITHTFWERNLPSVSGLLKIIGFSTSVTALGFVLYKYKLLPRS

Acetylcholinesterase [9] = target: T1, Acetylcholinesterase
Cholinesterase [10] = target: T2, Cholinesterase; test: Inhibition of human BChE using butyrylthiocholine as substrate by Ellman's method
[11] = target: T6, Protein deacetylase HDAC6 (Homo sapiens, UniProt Q9UBN7); test: Inhibition of HDAC6 (unknown origin)
T6 sequence (Q9UBN7 whole entry): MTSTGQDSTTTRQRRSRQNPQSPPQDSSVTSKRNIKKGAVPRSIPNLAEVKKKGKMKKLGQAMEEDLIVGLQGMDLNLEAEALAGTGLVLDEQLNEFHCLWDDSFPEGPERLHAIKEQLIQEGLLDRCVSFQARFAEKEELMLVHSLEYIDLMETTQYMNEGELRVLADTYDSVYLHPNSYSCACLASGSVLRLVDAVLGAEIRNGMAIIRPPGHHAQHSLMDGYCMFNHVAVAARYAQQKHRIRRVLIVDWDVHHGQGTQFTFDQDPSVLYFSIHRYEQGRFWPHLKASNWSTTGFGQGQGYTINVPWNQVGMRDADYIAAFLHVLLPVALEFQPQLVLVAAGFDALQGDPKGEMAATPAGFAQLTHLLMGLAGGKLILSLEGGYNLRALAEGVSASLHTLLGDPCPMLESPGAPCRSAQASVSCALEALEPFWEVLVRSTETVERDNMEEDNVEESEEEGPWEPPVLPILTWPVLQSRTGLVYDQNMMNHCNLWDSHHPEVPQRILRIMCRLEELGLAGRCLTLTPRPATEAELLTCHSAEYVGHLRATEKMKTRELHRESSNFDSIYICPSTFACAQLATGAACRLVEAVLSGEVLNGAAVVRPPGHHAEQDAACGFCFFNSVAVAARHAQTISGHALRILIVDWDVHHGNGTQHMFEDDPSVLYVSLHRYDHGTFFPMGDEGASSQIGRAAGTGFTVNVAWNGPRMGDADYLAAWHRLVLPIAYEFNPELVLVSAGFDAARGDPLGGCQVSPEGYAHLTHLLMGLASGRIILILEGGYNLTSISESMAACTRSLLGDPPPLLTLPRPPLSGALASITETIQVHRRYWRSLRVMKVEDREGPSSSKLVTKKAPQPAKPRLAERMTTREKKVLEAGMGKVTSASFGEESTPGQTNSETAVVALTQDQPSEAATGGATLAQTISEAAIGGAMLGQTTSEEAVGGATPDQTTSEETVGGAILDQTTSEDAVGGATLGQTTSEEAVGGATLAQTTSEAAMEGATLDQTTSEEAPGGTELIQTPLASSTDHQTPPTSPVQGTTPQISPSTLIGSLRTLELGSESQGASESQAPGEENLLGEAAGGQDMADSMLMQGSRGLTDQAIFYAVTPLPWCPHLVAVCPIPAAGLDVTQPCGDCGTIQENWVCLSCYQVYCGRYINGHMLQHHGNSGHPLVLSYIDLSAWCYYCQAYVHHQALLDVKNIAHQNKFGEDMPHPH

Cholinesterase [12] = target: T2, Cholinesterase; test: Inhibition of human BChE using butyrylthiocholine iodide as substrate preincubated for 15 min followed by substrate addition measured after 40 min by Ellman's method
[13] = Inhibition of equine serum BChE using butyrylthiocholine iodide as substrate by measured after 30 mins Ellman's method; type: cell-free, Equus caballus
[14] = target: T7, Amine oxidase [flavin-containing] B (Homo sapiens, UniProt P27338); test: Inhibition of human recombinant MAO-B using benzylamine as substrate by fluorescence based analysis
T7 sequence (P27338 whole entry): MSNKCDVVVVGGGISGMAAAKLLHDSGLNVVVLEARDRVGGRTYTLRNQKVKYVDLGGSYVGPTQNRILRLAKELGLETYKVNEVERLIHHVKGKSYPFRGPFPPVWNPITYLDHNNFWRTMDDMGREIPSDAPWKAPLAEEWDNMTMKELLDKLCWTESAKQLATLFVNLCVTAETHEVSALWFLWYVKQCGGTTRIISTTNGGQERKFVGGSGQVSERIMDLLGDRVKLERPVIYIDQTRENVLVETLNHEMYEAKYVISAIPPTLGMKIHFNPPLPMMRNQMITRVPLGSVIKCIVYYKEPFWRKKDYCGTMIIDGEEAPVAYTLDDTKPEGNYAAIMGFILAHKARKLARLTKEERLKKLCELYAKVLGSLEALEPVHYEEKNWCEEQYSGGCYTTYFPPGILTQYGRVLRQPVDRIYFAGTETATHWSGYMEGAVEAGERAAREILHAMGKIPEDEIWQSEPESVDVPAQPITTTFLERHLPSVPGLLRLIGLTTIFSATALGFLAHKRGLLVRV

[15] = target: Cholinesterases; ACHE & BCHE (Homo sapiens) (UniProt P06276+P22303); test: Selectivity index, ratio of IC50 for inhibition of human AChE to IC50 for inhibition of human BChE; type: protein assay
Cholinesterases; ACHE & BCHE (Homo sapiens), sequence (P06276 whole entry, looked up): as the sequence (P06276 whole entry) above
Cholinesterases; ACHE & BCHE (Homo sapiens), sequence (P22303 whole entry, looked up): as the sequence (P22303 whole entry) above

[16] = Inhibition of equine serum BChE using butyrylthiocholine iodide as substrate by Ellman's method; parameters: species or system Equus caballus
Acetylcholinesterase [17] = target: T3, Acetylcholinesterase; test: Inhibition of Electric eel AChE using […] as substrate by spectrophotometry based Ellman's method
[18] = target: Acetylcholinesterase (Electrophorus electricus) (UniProt O42275); test: Inhibition of electric eel AChE using acetylthiocholine iodide as substrate at 50 uM by Ellman's method relative to control
Acetylcholinesterase (Electrophorus electricus), sequence (O42275 24-633 limits assumed): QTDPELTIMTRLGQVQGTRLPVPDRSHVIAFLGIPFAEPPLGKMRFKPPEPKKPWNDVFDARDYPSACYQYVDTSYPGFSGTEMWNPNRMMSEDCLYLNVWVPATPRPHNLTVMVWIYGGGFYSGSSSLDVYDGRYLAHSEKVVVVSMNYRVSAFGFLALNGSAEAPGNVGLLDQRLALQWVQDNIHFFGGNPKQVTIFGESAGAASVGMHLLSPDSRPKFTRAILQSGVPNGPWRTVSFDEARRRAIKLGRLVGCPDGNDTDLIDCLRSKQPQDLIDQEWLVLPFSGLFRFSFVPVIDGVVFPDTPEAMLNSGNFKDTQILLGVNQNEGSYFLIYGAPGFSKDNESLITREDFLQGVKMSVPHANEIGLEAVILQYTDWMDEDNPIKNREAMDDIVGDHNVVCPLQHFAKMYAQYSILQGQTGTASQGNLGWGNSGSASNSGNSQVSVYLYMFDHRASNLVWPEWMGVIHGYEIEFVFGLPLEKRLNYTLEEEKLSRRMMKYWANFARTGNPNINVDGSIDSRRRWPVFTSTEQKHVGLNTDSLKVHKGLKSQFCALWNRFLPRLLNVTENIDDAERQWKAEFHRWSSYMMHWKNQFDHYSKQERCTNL

[19] = Selectivity index, ratio of IC50 for human AChE using acetylthiocholine iodide as substrate to IC50 for equine serum BuChE using butyrylthiocholine iodide as substrate
Cholinesterase [20] = target: T4, Cholinesterase; test: Inhibition of equine serum BuChE using butyrylthiocholine iodide as substrate preincubated for 60 mins followed by susbtrate addition by Ellaman"s method; type: cell-free
Acetylcholinesterase [21] = target: T1, Acetylcholinesterase; test: Inhibition of AChE (unknown origin) using acetylthiocholine iodide as substrate preincubated for 15 min followed by substrate addition and measured after 60 min by Ellman's method
Cholinesterase [22] = target: T2, Cholinesterase; test: Inhibition of human BChE using butyrylthiocholineiodide as substrate measured for 30 mins by Ellman's method
Cholinesterase [23] = target: T4, Cholinesterase; test: Inhibition of equine serum BuChE by Ellman's method
Acetylcholinesterase [24] = target: T3, Acetylcholinesterase; test: Inhibition of electric eel AChE using acetylthiocholine iodide as substrate after 60 mins by Ellman's method

## CCCCCCNC(=O)Oc1ccc2c(c1)CN1CCc3ccc(/N=N\c4ccccc4)cc3C1N2C (configuration not stated)
Acetylcholinesterase [1]
  inhibition: 54.9%
Cholinesterase [2]
  IC50: 0.044 µM

## COc1cccc(C(=O)OCc2ccccc2)c1OC(=O)N(C)OC
Cholinesterase [3]
  inhibition: 50%
Acetylcholinesterase [4]
  IC50: > 100 µM
Cholinesterase [5]
  IC50: 0.99 µM

## Cc1ccc(/C=N/NC(=O)Cn2c(=O)sc3ccccc32)s1
Acetylcholinesterase [6]
  IC50: > 40 µM
Cholinesterase [7]
  IC50: 1.38 µM

## [O-]/[N+](=C\c1ccc2cccc(O)c2n1)Cc1ccccc1
[8]
  IC50: > 100 µM

## COc1cccc(NC(=O)CN(C)[C@@H](C)C(=O)c2c[nH]c3ccccc23)c1
Acetylcholinesterase [9]
  IC50: > 100 µM
Cholinesterase [2]
  IC50: 4.24 µM

## C/C(NCCCCNc1c2c(nc3ccccc13)CCCC2)=C(/N=N/c1ccc(C)cc1)C(=O)c1ccccc1
Cholinesterase [10]
  IC50: 0.35 µM

## CCN(CC)Cc1ccccc1CNC(=O)c1cccc(NC(=O)c2cccc(C(=O)NO)c2)c1
[11]
  IC50: 0.071 µM
Cholinesterase [12]
  IC50: 0.0018 µM

## CN(C)C(=O)Oc1ccc(C(=O)C2CCC(Cc3ccccc3)CC2)c(OC(=O)N(C)C)c1 (configuration not stated)
Acetylcholinesterase [4]
  IC50: 7.8 µM
Cholinesterase [5]
  IC50: 0.53 µM

## Fc1ccc2c(c1)c1c(n2CCN2CCCCC2)CCCC1
Acetylcholinesterase [4]
  IC50: > 100 µM
Cholinesterase [5]
  IC50: 0.11 µM

## O=C(/C=C/c1ccccc1Cl)c1cc2ccccc2oc1=O
[13]
  IC50: 7 µM
[14]
  IC50: 0.51 µM
[8]
  IC50: > 40 µM

## CCN(CC)C(=O)c1ccc2c(c1)nc(Cc1ccc(OC(=O)N3CCC3)cc1)n2CCC(C)C
Cholinesterase [2]
  IC50: 0.006 µM
[15]
  Ratio IC50: 10

## Cc1ccc(-c2nc3cc(C(=O)NNc4ccc(Br)cc4)ccc3[nH]2)cc1
[16]
  IC50: 1.46 µM
Acetylcholinesterase [17]
  IC50: > 100 µM

## CCc1[nH]c2ccccc2c1CCN1CCC[C@H](CC)C1
Acetylcholinesterase [9]
  IC50: > 100 µM
Cholinesterase [2]
  IC50: 0.65 µM

## CCc1ccccc1NC(=O)c1ccc(NS(=O)(=O)c2ccccc2)cc1
[18]
  inhibition: 0.52%
Acetylcholinesterase [9]
  IC50: > 50 µM
Cholinesterase [5]
  IC50: 0.046 µM and 0.04 µM
[19]
  Ratio IC50: > 1080

## O=C(NCCCCCCCCNc1c2c(nc3ccccc13)CCCC2)c1ccccc1O
Cholinesterase [20]
  IC50: 0.01 µM

## c1ccc(-c2nn(-c3ccccc3)cc2-c2nc(-c3ccccc3)c(-c3ccccc3)n2-c2ccccc2)cc1
Acetylcholinesterase [21]
  IC50: 41.2 µM
Cholinesterase [22]
  IC50: 0.35 µM

## CCC(=O)N(CC(=O)Nc1ccccc1C)Cc1ccccc1
Cholinesterase [23]
  IC50: 25.9 µM
Acetylcholinesterase [24]
  IC50: > 1610 µM

## CCNC(=S)N/N=C/c1c(OC)cc(OC)c2c(-c3ccccc3)c[nH]c12
Acetylcholinesterase [9]
  IC50: 59.4 µM
Cholinesterase [2]
  IC50: 1.95 µM
